From patent publication US10745382B2 (BRISTOL-MYERS SQUIBB COMPANY, priority 2015, dated 2020)

Target: T1, PD-1/PD-L1 (Homo sapiens, UniProt Q9NZQ7)
T1 construct: made in house; host or cells: HEK293T
Assay: PD-1/PD-L1 Homogenous Time-Resolved Fluorescence (HTRF) binding assay
Settings: PD-L1-His 10 nM, PD-1-Ig 20 nM; value given as range class; read-out: Range or IC50
Summary of the method: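 Detection by europium cryptate anti-Ig plus APC anti-His (1 nM and 20 nM final) with HTRF signal. Buffer was dPBS, 0.1% BSA, 0.05% Tween-20.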

T1 sequence (Q9NZQ7 with tags, fused parts or gaps): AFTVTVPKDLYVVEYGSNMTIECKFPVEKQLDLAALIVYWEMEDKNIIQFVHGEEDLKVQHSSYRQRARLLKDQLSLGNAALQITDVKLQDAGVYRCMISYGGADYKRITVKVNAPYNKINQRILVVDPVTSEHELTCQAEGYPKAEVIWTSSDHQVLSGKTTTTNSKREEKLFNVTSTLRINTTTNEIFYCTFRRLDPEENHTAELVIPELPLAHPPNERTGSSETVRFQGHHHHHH

Row | Compound | IC50
1 | COc1cc(OCc2cccc(-c3cccc(OCCCN4CC[C@@H](O)C4)c3C)c2C)c(Cl)cc1C=O [Example 3032, (R)-5-chloro-4-((3′-(3-(3-hydroxypyrrolidin-1-yl)propoxy)-2,2′-dimethyl-[1,1′-biphenyl]-3-yl)methoxy)-2-methoxybenzaldehyde] | 100 to 2000 nM
2 | Cc1c(COc2cc(OCc3cncc(C#N)c3)c(CN[C@](C)(CO)C(=O)O)cc2Cl)cccc1-c1ccc2c(c1C)OCCO2 [Example 3042, (2R)-2-((5-chloro-2-((5-cyanopyridin-3-yl)methoxy)-4-((2-methyl-3-(5-methyl-2,3-dihydrobenzo[b][1,4]dioxin-6-yl)benzyl)oxy)benzyl)amino)-3-hydroxy-2-methylpropanoic Acid] | 0.21 to 10 nM
3 | Cc1c(COc2cc(OCc3cncc(C#N)c3)c(CN3C[C@H](O)C[C@H]3C(=O)O)cc2Cl)cccc1-c1cccc(C(=O)N2CCOCC2)c1C [Example 4050, (2S,4R)-1-(5-chloro-2-((5-cyanopyridin-3-yl)methoxy)-4-((2,2′-dimethyl-3′-(morpholine-4-carbonyl)-[1,1′-biphenyl]-3-yl)methoxy)benzyl)-4-hydroxypyrrolidine-2-carboxylic Acid] | 100 to 2000 nM
4 | CCOC(=O)CC1(O)CCN(CCC2COc3ccc(-c4cccc(COc5cc(OCc6cncc(S(C)(=O)=O)c6)c(CN6CCCC[C@H]6C(=O)OC)cc5Cl)c4C)cc3O2)C1 (mixture of isomers) [Example 1527, (2S)-methyl 1-(5-chloro-4-((3-(3-(2-(3-(2-ethoxy-2-oxoethyl)-3-hydroxypyrrolidin-1-yl)ethyl)-2,3-dihydrobenzo[b][1,4]dioxin-6-yl)-2-methylbenzyl)oxy)-2-((5-(methylsulfonyl)pyridin-3-yl)methoxy)benzyl)piperidine-2-carboxylate] | 10 to 100 nM
5 | Cc1ccccc1-c1cccc(COc2cc(OCc3cncc(C#N)c3)c(CN[C@](C)(CO)C(=O)O)cc2Cl)c1C [Example 3022, (R)-2-((5-chloro-2-((5-cyanopyridin-3-yl)methoxy)-4-((2,2′-dimethyl-[1,1′-biphenyl]-3-yl)methoxy)benzyl)amino)-3-hydroxy-2-methylpropanoic Acid] | 0.21 to 10 nM
6 | Cc1c(CCCCN2CC[C@@H](O)C2)cccc1-c1cccc(COc2cc(OCc3cncc(C#N)c3)c(CN3C[C@@H](O)C[C@H]3C(=O)O)cc2Cl)c1C [Example 4063, (2S,4S)-1-(5-chloro-2-((5-cyanopyridin-3-yl)methoxy)-4-((3′-(4-((R)-3-hydroxypyrrolidin-1-yl)butyl)-2,2′-dimethyl-[1,1′-biphenyl]-3-yl)methoxy)benzyl)-4-hydroxypyrrolidine-2-carboxylic Acid] | 0.21 to 10 nM
7 | Cc1c(COc2cc(OCc3cncc(C#N)c3)c(CN[C@@H](CO)C(=O)O)cc2Cl)cccc1-c1cc(OCCCN2CC[C@@H](O)C2)cc(OCCCN2CC[C@@H](O)C2)c1 [Example 3065, (S)-2-((4-((3′,5′-bis(3-((R)-3-hydroxypyrrolidin-1-yl)propoxy)-2-methyl-[1,1′-biphenyl]-3-yl)methoxy)-5-chloro-2-((5-cyanopyridin-3-yl)methoxy)benzyl)amino)-3-hydroxypropanoic Acid] | 10 to 100 nM
8 | Cc1c(COc2cc(OCc3cncc(C#N)c3)c(CN[C@@H](CO)C(=O)O)cc2Cl)cccc1-c1cccc(OCCCN2CCC(O)(c3ccccc3)C2)c1C (stereo partly drawn) [Example 3039, (2S)-2-((5-chloro-2-((5-cyanopyridin-3-yl)methoxy)-4-((3′-(3-(3-hydroxy-3-phenylpyrrolidin-1-yl)propoxy)-2,2′-dimethyl-[1,1′-biphenyl]-3-yl)methoxy)benzyl)amino)-3-hydroxypropanoic Acid] | 0.21 to 10 nM
9 | Cc1cc(C(=O)N2CCOCC2)ccc1-c1cccc(COc2cc(OCc3cncc(C#N)c3)c(CNC(CO)CO)cc2Cl)c1C [Example 2349, 5-((4-chloro-2-(((1,3-dihydroxypropan-2-yl)amino)methyl)-5-((2,2′-dimethyl-4′-(morpholine-4-carbonyl)-[1,1′-biphenyl]-3-yl)methoxy)phenoxy)methyl)nicotinonitrile] | 10 to 100 nM
10 | Cc1c(COc2cc(OCc3cncc(C#N)c3)c(CNC(C)(CO)CO)cc2Cl)cccc1-c1cccc(OCCC(C)(C)O)c1Cl [Example 2080, 5-((4-chloro-5-((2′-chloro-3′-(3-hydroxy-3-methylbutoxy)-2-methyl-[1,1′-biphenyl]-3-yl)methoxy)-2-(((1,3-dihydroxy-2-methylpropan-2-yl)amino)methyl)phenoxy)methyl)nicotinonitrile] | 0.21 to 10 nM
11 | Cc1c(COc2cc(OCc3cncc(C#N)c3)c(CN3CCCC[C@H]3C(=O)O)cc2Cl)cccc1-c1cccc(OCCCN(C)Cc2ccccn2)c1C [Example 2228, (2S)-1-(5-chloro-2-((5-cyanopyridin-3-yl)methoxy)-4-((2,2′-dimethyl-3′-(3-(methyl(pyridin-2-ylmethyl)amino)propoxy)biphenyl-3-yl)methoxy)benzyl)piperidine-2-carboxylic Acid] | 10 to 100 nM
12 | Cc1c(COc2cc(OCc3cncc(C#N)c3)c(CN3CCCC[C@H]3C(=O)Oc3ccc([N+](=O)[O-])cc3)cc2Cl)cccc1-c1cccc(OCCCN2CC[C@@H](O)C2)c1C [Example 2370, 4-nitrophenyl (S)-1-(5-chloro-2-((5-cyanopyridin-3-yl)methoxy)-4-((3′-(3-((R)-3-hydroxypyrrolidin-1-yl)propoxy)-2,2′-dimethyl-[1,1′-biphenyl]-3-yl)methoxy)benzyl)piperidine-2-carboxylate] | 10 to 100 nM
13 | Cc1c(COc2cc(OCc3cncc(C#N)c3)c(CN3CCCC[C@H]3C(=O)O)cc2Cl)cccc1-c1cccc(O[C@@H](C)CCN2CC[C@@H](O)C2)c1Cl [Example 1522, (S)-1-(5-chloro-4-((2′-chloro-3′-(((S)-4-((R)-3-hydroxypyrrolidin-1-yl)butan-2-yl)oxy)-2-methyl-[1,1′-biphenyl]-3-yl)methoxy)-2-((5-cyanopyridin-3-yl)methoxy)benzyl)piperidine-2-carboxylic acid] | 0.21 to 10 nM

The remaining lines, values ahead:

Row | IC50 | Compound
14 | 0.21 to 10 nM | Cc1c(COc2cc(OCc3cncc(C#N)c3)c(CNC(C)(CO)C(=O)O)cc2Cl)cccc1-c1cccc(OCCCN2CCC(CO)(C(=O)O)C2)c1C (single isomer, unassigned) [Example 1067]
15 | 0.21 to 10 nM | CC(=O)N[C@@H]1CCN(CCCOc2cccc(-c3cccc(COc4cc(OCc5cncc(C#N)c5)c(CN[C@](C)(CO)C(=O)O)cc4Cl)c3C)c2Cl)C1 [Example 2022, (R)-2-((4-((3′-(3-((R)-3-acetamidopyrrolidin-1-yl)propoxy)-2′-chloro-2-methyl-[1,1′-biphenyl]-3-yl)methoxy)-5-chloro-2-((5-cyanopyridin-3-yl)methoxy)benzyl)amino)-3-hydroxy-2-methylpropanoic Acid]
16 | 0.21 to 10 nM | Cc1c(COc2cc(OCc3cncc(C#N)c3)c(CNCCCN(C)C)cc2Cl)cccc1-c1cccc(OCCCN2CCC(O)C2)c1C (stereo in doubt) [Example 3007, (R)-5-((4-chloro-2-(((3-(dimethylamino)propyl)amino)methyl)-5-((3′-(3-(3-hydroxypyrrolidin-1-yl)propoxy)-2,2′-dimethyl-[1,1′-biphenyl]-3-yl)methoxy)phenoxy)methyl)nicotinonitrile]
17 | 0.21 to 10 nM | CC(=O)N[C@H]1CCN(CCCOc2cccc(-c3cccc(COc4cc(OCc5cncc(C#N)c5)c(CN[C@](C)(CO)C(=O)O)cc4Cl)c3C)c2Cl)C1 [Example 2071, (R)-2-((4-((3′-(3-((S)-3-acetamidopyrrolidin-1-yl)propoxy)-2′-chloro-2-methyl-[1,1′-biphenyl]-3-yl)methoxy)-5-chloro-2-((5-cyanopyridin-3-yl)methoxy)benzyl)amino)-3-hydroxy-2-methylpropanoic Acid]
18 | 0.21 to 10 nM | Cc1c(COc2cc(OCc3cncc(C#N)c3)c(CN[C@](C)(CO)C(=O)O)cc2Cl)cccc1-c1cccc(OCCCN2CCC(O)C2)c1C(F)(F)F (stereo in doubt) [Example 3013, (R)-2-((5-chloro-2-((5-cyanopyridin-3-yl)methoxy)-4-((3′-(3-((R)-3-hydroxypyrrolidin-1-yl)propoxy)-2-methyl-2′-(trifluoromethyl)-[1,1′-biphenyl]-3-yl)methoxy)benzyl)amino)-3-hydroxy-2-methylpropanoic Acid]
19 | 0.21 to 10 nM | COc1cc(OCc2cccc(-c3cccc(OCCCN4CC[C@@H](O)C4)c3C)c2C)c(Cl)cc1CN[C@](C)(CO)C(=O)O [Example 3034, (2R)-2-((5-chloro-4-((3′-(3-((R)-3-hydroxypyrrolidin-1-yl)propoxy)-2,2′-dimethyl-[1,1′-biphenyl]-3-yl)methoxy)-2-methoxybenzyl)amino)-3-hydroxy-2-methylpropanoic Acid]
20 | 0.21 to 10 nM | Cc1c(COc2cc(OCc3cncc(C#N)c3)c(CNC[C@H](O)CO)cc2Cl)cccc1-c1cccc(OCCCNC[C@H](O)CO)c1Cl [Example 2003, 5-((4-chloro-5-((2′-chloro-3′-(3-(((S)-2,3-dihydroxypropyl)amino)propoxy)-2-methyl-[1,1′-biphenyl]-3-yl)methoxy)-2-((((S)-2,3-dihydroxypropyl)amino)methyl)phenoxy)methyl)nicotinonitrile]
21 | 10 to 100 nM | Cc1c(COc2cc(OCc3cncc(S(C)(=O)=O)c3)c(CN3CCCC[C@H]3C(=O)O)cc2Cl)cccc1-c1cccc(OCCCN2CC[C@@H](O)C2)c1Cl [Example 1513, (S)-1-(5-chloro-4-((2′-chloro-3′-(3-((R)-3-hydroxypyrrolidin-1-yl)propoxy)-2-methyl-[1,1′-biphenyl]-3-yl)methoxy)-2-((5-(methylsulfonyl)pyridin-3-yl)methoxy)benzyl)piperidine-2-carboxylic acid]
22 | 0.21 to 10 nM | Cc1c(COc2cc(OCc3cncc(S(C)(=O)=O)c3)c(CNC(C)(CO)CO)cc2Cl)cccc1-c1cccc(OCCCN2CC[C@@H](O)C2)c1Cl [Example 1532, (R)-2-((5-chloro-4-((2′-chloro-3′-(3-(3-hydroxypyrrolidin-1-yl)propoxy)-2-methyl-[1,1′-biphenyl]-3-yl)methoxy)-2-((5-(methylsulfonyl)pyridin-3-yl)methoxy)benzyl)amino)-2-methylpropane-1,3-diol]
